Data reported in patent US11884647B2, “Compounds and methods for targeting pathogenic blood vessels” (THE REGENTS OF THE UNIVERSITY OF CALIFORNIA, priority 2019, dated 2024).

System: tumor endothelial cells (LL/2 lung cancer tumor)
Experiment: Lung LL2 ex vivo model of tumor angiogenesis
Assay type: cell-based, mouse
Details: Lung LL2 ex vivo; Conc. 40 μm; drug treatment two days
Outline: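 Mouse LL2 tumor fragments (~0.5×0.5×0.3 mm) embedded in Matrigel and grown in endothelial growth medium at 37° C until endothelial outgrowth (about 4 days) before drug treatment. About 48 h after drug addition, stained 10 min with fluorescein diacetate/propidium iodide; live (green) and dead (red) cells imaged at 2× with fixed channel settings.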

Point of comparison: `CCCCOc1ccc(S(=O)(=O)c2cnc3ccc(SC)cc3c2N2CCCN(C3COC3)CC2)cc1` [compound 355, 3-((4-butoxyphenyl)sulfonyl)-6-(methylthio)-4-(4-(oxetan-3-yl)-1,4-diazepan-1-yl)quinoline], Cell death 0%. Against it:
- CCCCOc1ccc(S(=O)(=O)c2cnc3ccc(SC)cc3c2N2CCCN(c3nc4ccc(Cl)cc4s3)CC2)cc1 [compound 356, 2-(4-(3-((4-butoxyphenyl)sulfonyl)-6-(methylthio)quinolin-4-yl)-1,4-diazepan-1-yl)-6-chlorobenzo[d]thiazole] — the same, 0%
- CCCCOc1ccc(S(=O)(=O)c2cnc3ccc(SC)cc3c2N2CCC(=O)N(C)CC2)cc1 [compound 357, 1-(3-((4-butoxyphenyl)sulfonyl)-6-(methylthio)quinolin-4-yl)-4-methyl-1,4-diazepan-5-one] — the same, 0%
- CCCCOc1ccc(S(=O)(=O)c2cnc3ccc(SC)cc3c2N2CCCN(C3CCSCC3)CC2)cc1 [compound 358, 3-((4-butoxyphenyl)sulfonyl)-6-(methylthio)-4-(4-(tetrahydro-2H-thiopyran-4-yl)-1,4-diazepan-1-yl)quinoline] — the same, 0%
- CCCCOc1ccc(S(=O)(=O)c2cnc3ccc(SC)cc3c2N2CCCN(C3CCS(=O)(=O)CC3)CC2)cc1 [compound 359, 4-(4-(3-((4-butoxyphenyl)sulfonyl)-6-(methylthio)quinolin-4-yl)-1,4-diazepan-1-yl)tetrahydro-2H-thiopyran 1,1-dioxide] — higher, 20%
- CNC(=O)c1ccc2ncc(S(=O)(=O)c3ccc(OC)cc3)c(NC)c2c1 [compound 360, 3-((4-methoxyphenyl)sulfonyl)-N-methyl-4-(methylamino)quinoline-6-carboxamide] — higher, 20%

Same assay, conditions: Mus musculus, Endothelial cell, 48 h, read-out: Cell death

Point of comparison: `CCCCCCCCCCCCOc1ccc(S(=O)(=O)c2cnc3ccc([S+](C)[O-])cc3c2N2CCC(N3CCC(N4CCN(C)CC4)CC3)CC2)cc1F` (stereo not shown) [compound 370, 3-((4-(dodecyloxy)-3-fluorophenyl)sulfonyl)-4-(4-(4-methylpiperazin-1-yl)-[1,4′-bipiperidin]-1′-yl)-6-(methylsulfinyl)quinoline], cytotoxicity at 20 µM 20%. Against it:
- CCCCCCCCCCCCOc1ccc(S(=O)(=O)c2cnc3ccc([S+](C)[O-])cc3c2N2CCC(N3CCN(CCO)CC3)CC2)cc1F (stereo not shown) [compound 362, 2-(4-(1-(3-((4-(dodecyloxy)-3-fluorophenyl)sulfonyl)-6-(methylsulfinyl)quinolin-4-yl)piperidin-4-yl)piperazin-1-yl)ethanol] — the same, 20%
- CCCCCCCCCCCCOc1ccc(S(=O)(=O)c2cnc3ccc([S+](C)[O-])cc3c2N2CCC(N3CCC(N4CCCCC4)CC3)CC2)cc1F (stereo not shown) [compound 363, 4-([1,4′:1′,4″-terpiperidin]-1″-yl)-3-((4-(dodecyloxy)-3-fluorophenyl)sulfonyl)-6-(methylsulfinyl)quinoline] — higher, 30%
- CCCCCCCCCCCCOc1ccc(S(=O)(=O)c2cnc3ccc([S+](C)[O-])cc3c2N2CCC(N3CCC(N4CCCC(O)C4)CC3)CC2)cc1F (stereo not shown) [compound 364, 1″-(3-((4-(dodecyloxy)-3-fluorophenyl)sulfonyl)-6-(methylsulfinyl)quinolin-4-yl)-[1,4′:1′,4″- terpiperidin]-3-ol] — higher, 30%
- CCCCCCCCCCCCCCOc1ccc(S(=O)(=O)c2cnc3ccc([S+](C)[O-])cc3c2N2CCC(N3CCN(CCO)CC3)CC2)cc1F (stereo not shown) [compound 365, 2-(4-(1-(3-((3-fluoro-4-(tetradecyloxy)phenyl)sulfonyl)-6-(methylsulfinyl)quinolin-4-yl)piperidin-4-yl)piperazin-1-yl)ethanol] — the same, 20%
- CCCCCCCCCCCCCCOc1ccc(S(=O)(=O)c2cnc3ccc([S+](C)[O-])cc3c2N2CCC(N3CCC(N4CCCCC4)CC3)CC2)cc1F (stereo not shown) [compound 366, 4-([1,4′:1′,4″-terpiperidin]-1″-yl)-3-((3-fluoro-4-(tetradecyloxy)phenyl)sulfonyl)-6-(methylsulfinyl)quinoline] — lower, 10%
- CCCCCCCCCCCCCCOc1ccc(S(=O)(=O)c2cnc3ccc([S+](C)[O-])cc3c2N2CCC(N3CCC(N4CCCC(O)C4)CC3)CC2)cc1F (stereo not shown) [compound 367, 1″-(3-((3-fluoro-4-(tetradecyloxy)phenyl)sulfonyl)-6-(methylsulfinyl)quinolin-4-yl)-[1,4′:1′,4″- terpiperidin]-3-ol] — lower, 5%
- CCCCCCCCCCCCOc1ccc(S(=O)(=O)c2cnc3ccc([S+](C)[O-])cc3c2N2CCC(N3CCC(N4CCN(CCO)CC4)CC3)CC2)cc1F (stereo not shown) [compound 368, 2-(4-(1′-(3-((4-(dodecyloxy)-3-fluorophenyl)sulfonyl)-6-(methylsulfinyl)quinolin-4-yl)-[1,4′-bipiperidin]-4-yl)piperazin-1-yl)ethanol] — the same, 20%
- CCCCCCCCCCCCCCOc1ccc(S(=O)(=O)c2cnc3ccc([S+](C)[O-])cc3c2N2CCC(N3CCC(N4CCN(C)CC4)CC3)CC2)cc1F (stereo not shown) [compound 371, 3-((3-fluoro-4-(tetradecyloxy)phenyl)sulfonyl)-4-(4-(4-methylpiperazin-1-yl)-[1,4′-bipiperidin]-1′-yl)-6-(methylsulfinyl)quinoline] — higher, 30%
- CCCCCCCCCCCCOc1ccc(S(=O)(=O)c2cnc3ccc([S+](C)[O-])cc3c2N2CCC(N3CCC(N4CCC(O)CC4)CC3)CC2)cc1F (stereo not shown) [compound 372, 1″-(3-((4-(dodecyloxy)-3-fluorophenyl)sulfonyl)-6-(methylsulfinyl)quinolin-4-yl)-[1,4′:1′,4″- terpiperidin]-4-ol] — the same, 20%
- CCCCCCCCCCCCCCOc1ccc(S(=O)(=O)c2cnc3ccc([S+](C)[O-])cc3c2N2CCC(N3CCC(N4CCC(O)CC4)CC3)CC2)cc1F (stereo not shown) [compound 373, 1″-(3-((3-fluoro-4-(tetradecyloxy)phenyl)sulfonyl)-6-(methylsulfinyl)quinolin-4-yl)-[1,4′:1′,4″- terpiperidin]-4-ol] — the same, 20%
- CCCCCCCCCCCCOc1ccc(S(=O)(=O)c2cnc3ccc([S+](C)[O-])cc3c2N2CCC(N3CCC(N4CCC(O)CC4)CC3)CC2)cc1 (stereo not shown) [compound 374, 1″-(3-((4-(dodecyloxy)phenyl)sulfonyl)-6-(methylsulfinyl)quinolin-4-yl)-[1,4′:1′,4″-terpiperidin]-4-ol] — the same, 20%
- CCCCCCCCCCCCCCOc1ccc(S(=O)(=O)c2cnc3ccc([S+](C)[O-])cc3c2N2CCC(N3CCC(N4CCC(O)CC4)CC3)CC2)cc1 (stereo not shown) [compound 375, 1″-(6-(methylsulfinyl)-3-((4-(tetradecyloxy)phenyl)sulfonyl)quinolin-4-yl)-[1,4′:1′,4″-terpiperidin]-4-ol] — higher, 50%
- CCCCCCCCCCCCCCCCOc1ccc(S(=O)(=O)c2cnc3ccc([S+](C)[O-])cc3c2N2CCC(N3CCN(CCO)CC3)CC2)cc1 (stereo not shown) [compound 376, 2-(4-(1-(3-((4-(hexadecyloxy)phenyl)sulfonyl)-6-(methylsulfinyl)quinolin-4-yl)piperidin-4-yl)piperazin-1-yl)ethanol] — lower, 10%
- CCCCCCCCCCCCCCCCOc1ccc(S(=O)(=O)c2cnc3ccc([S+](C)[O-])cc3c2N2CCC(N3CCC(N4CCCCC4)CC3)CC2)cc1 (stereo not shown) [compound 377, 4-([1,4′:1′,4″-terpiperidin]-1″-yl)-3-((4-(hexadecyloxy)phenyl)sulfonyl)-6-(methylsulfinyl)quinoline] — lower, 10%
- CCCCCCCCCCCCCCCCOc1ccc(S(=O)(=O)c2cnc3ccc([S+](C)[O-])cc3c2N2CCC(N3CCC(N4CCCC(O)C4)CC3)CC2)cc1 (stereo not shown) [compound 378, 1″-(3-((4-(hexadecyloxy)phenyl)sulfonyl)-6-(methylsulfinyl)quinolin-4-yl)-[1,4′:1′,4″- terpiperidin]-3-ol] — higher, 30%
